{"source": "patent US5439930A", "about": "“Biologically active n-acylprolydipeptides having antiamnestic, antihypoxic and anorexigenic effects” (Russian-American Institute for New Drug Development, priority 1992, dated 1995)", "key": {"[1]": {"system": "memory decline evoked by maximal electroshock (MES) in randomly bred male albino rats", "test": "Passive avoidance step-through, amnesia by maximal electroshock (MES)", "format": "in vivo", "description": "(§1) Compounds according to the present invention, including the compounds described in Examples 1-11, were checked for their ability to prevent memory decline evoked by maximal electroshock (MES) or scopolamine in the passive avoidance step-through paradigm (equipment of Laffaette Co., USA). The experiments described herein (Examples 12, 13, 15, and 19) were carried out using randomly bred male albino rats of a weight of approximately 180-220 g. […] Amnesia was produced by transcorneal maximal electroshock immediately after learning or scopolamine (1 mg/kg, subcutaneously) administration 30 min. before learning. The retention was tested 24 hours later by the measurement of latency of the entering of the dark compartment.\n(§2) The degree of antiamnestic activity was estimated according to Buttler's modified formula: [formula]\n(§3) The higher the magnitude of this indicator the more is the antiamnestic activity."}, "[2]": {"system": "memory decline evoked by scopolamine in randomly bred male albino rats", "test": "Passive avoidance step-through, amnesia by scopolamine", "format": "in vivo", "conditions": "0.1 mg/kg 15 min before learning", "description": "as §1, §2, §3"}, "[3]": {"system": "undertraining of the passive avoidance reflex, rats", "test": "Passive avoidance with undertraining, different regimes of administration", "format": "in vivo", "conditions": "0.5 mg/kg i.p."}, "[4]": {"system": "outbred albino male mice", "test": "Acute habituation of locomotor activity (Optovarimex)", "format": "in vivo", "description": "The effect of Compound I on acute habituation of locomotor activity was estimated according to diminution of locomotions during 30 minutes. Experiments were performed on outbred albino male mice (18-22 g) placed in groups of 10 animals in registration cage (Optovarimex, Colomb., USA)."}, "[5]": {"system": "lobectomized rats", "test": "Passive avoidance after frontal lobectomy", "format": "in vivo", "conditions": "9th day, 0.1 mg/kg for 9 days", "description": "(§4) The impairment of learning and memory was achieved also by frontal lobectomy, which was performed after passive avoidance or active avoidance learning. Compound I (0.1 mg/kg) was administered beginning from the first post-operational day and lasting for 9 days. The testing was performed at 4th and 9th days. […] The frontal lobectomy has as a consequence the decrease of the latency of the entering of the dark compartment; Compound I restored the passive avoidance reaction (Table 8)."}, "[6]": {"system": "lobectomized rats", "test": "Active avoidance after frontal lobectomy", "format": "in vivo", "conditions": "0.1 mg/kg daily", "description": "as §4\nCompound I increased the percentage of the animals performing the active avoidance reaction and the coefficient of the preserving (Table 8)."}, "[7]": {"system": "24-month Wistar rats", "test": "Locomotor activity and habituation in aged rats (Optovarimex)", "format": "in vivo", "description": "The influence of Compound I on age-related mental decline was studied in experiments on 24-month Wistar rats. The substance was administered chronically in the dose of 0.1 mg/kg/day during 24 days, intraperitoneally before the testing and 14 days during testing.\nRegistration of the locomotor activity in the Optovarimex multichannel analyzer has shown that Compound I increased the initial horizontal activity being administered chronically. […] This test is suitable for the study of nootropics. In the control group the coefficient of the habituation was 0.29."}, "[8]": {"test": "Body weight and food consumption", "format": "in vivo, rats", "description": "The influence of Compound I on body weight and food consumption was studied in the experiments on the outbred rats. The substance, administered during 3 weeks in dose of 0.1 mg/kg/day intraperitoneally slowed the dynamics of weight increase in comparison to control: the increase of the weight (in %% to the initial one) was 12% in the treated group and 24% in the control group.\nThe amount of the consumed chow checked between 19th and 21st days was less for treated animals (39.5 g/day/rat) than for control ones (68.6 g/day/rat)."}, "[9]": {"system": "phenazepam withdrawn male albino rats", "test": "Pentylenetetrazol kindling seizures during phenazepam withdrawal", "format": "in vivo", "description": "The influence of Compound I on withdrawal syndrome caused by the interruption of chronic administration of benzodiazepine tranquilizer phenazepam (T. A. Voronina et al., In Fenazepam; A. V. Bogatsky, Ed.; Naukova dumka Publishers: Kiev, 1982; pp. 67-169) was studied in experiments on male albino rats weighing 190-200 g at the beginning and 300-350 g at the end of the experiment.\nPhenazepam (2 mg/kg intraperitoneally) or saline (control group of rats) were given once daily for 57 days. The withdrawal syndrome occurred 24-72 hours after the last injection. The withdrawal syndrome in rats consisted in \"anxiogenic-like\" state aggressiveness and accelerated development of kindled seizures caused by pentylentetrazol. Compound I was administered to the withdrawn rats in doses of 0.5 mg/kg intraperitoneally 15 minutes prior to testing.\nThe seizure reactions of rats were studied using chemical kindling (C.R. Mason et al., Epilepsia, 13, 663-674 (1972); R. M. Post et al., Handbook of Biological Psychiatry, Part IV, No. 7, Marcel-Dekker (1981) pp. 609-651) produced by small doses of pentylene-tetrazol (35 mg/kg, intraperitoneally) administrated 24, 48 and 72 h after phenazepam withdrawal. The degree of seizures was evaluated by 4 points: tremor (1 point); jerk (2 point); clonic seizures (3 points); tonic seizures and death (4 points).\nOur experiments pointed out that the pentylenetetrazol seizures were more pronounced in phenazepam withdrawn rats than in the control one. Compound I diminished the degree of kindling provoked by pentylenetetrazol (Table 14)."}}, "note": "Where a SMILES comes first, the peptide text is derived from it. The star is where a group is joined. PhAc = O=C(Cc1ccccc1)*", "data": [{"smiles": "CCOC(=O)CNC(=O)[C@@H]1CCCN1C(=O)Cc1ccccc1", "note": "[Compound I, N-phenacetyl-L-prolylglycine ethyl ester] (PhAc-Pro-Gly-OEt)", "values": [{"measurement": "Latency (sec.) Amnesia + subst.", "setting": "[1]; 0.1 mg/kg i.p. 15 min before training, MES after learning, retention 24 h later", "result": 25, "unit": "s"}, {"measurement": "AA % (antiamnestic activity, Butler's modified formula)", "setting": "[1]; 0.1 mg/kg i.p. 15 min before training, MES amnesia", "result": 36, "unit": "%"}, {"measurement": "Antiamnestic activity (Aa)", "setting": "[1]; 0.1 mg/kg per os, MES amnesia", "result": 19, "unit": "%"}, {"measurement": "Antiamnestic activity (Aa)", "setting": "[1]; 0.3 mg/kg per os, MES amnesia", "result": 19, "unit": "%"}, {"measurement": "Antiamnestic activity (Aa)", "setting": "[1]; 0.4 mg/kg per os, MES amnesia", "result": 23, "unit": "%"}, {"measurement": "Antiamnestic activity (Aa)", "setting": "[1]; 0.5 mg/kg per os, MES amnesia", "result": 43, "unit": "%"}, {"measurement": "Antiamnestic activity (Aa)", "setting": "[1]; 0.7 mg/kg per os, MES amnesia", "result": 52, "unit": "%"}, {"measurement": "Antiamnestic activity (Aa)", "setting": "[1]; 0.9 mg/kg per os, MES amnesia", "result": 36, "unit": "%"}, {"measurement": "Antiamnestic activity (Aa)", "setting": "[1]; 1.0 mg/kg per os, MES amnesia", "result": 10, "unit": "%"}, {"measurement": "Antiamnestic activity (Aa)", "setting": "[1]; 1.2 mg/kg per os, MES amnesia", "result": 16, "unit": "%"}, {"measurement": "Antiamnestic activity (Aa)", "setting": "[1]; 1.5 mg/kg per os, MES amnesia", "result": 10, "unit": "%"}, {"measurement": "Aa (antiamnestic activity)", "setting": "[2]; scopolamine 1 mg/kg s.c.", "result": 55.5}, {"measurement": "Latency (sec.) Scopolamine + substance", "setting": "[2]; scopolamine 1 mg/kg s.c. 30 min before trial", "result": 64.1, "unit": "s"}, {"measurement": "Mnestic activity (Ma), administration 15 min. before retrieval", "setting": "[3]", "result": 32, "unit": "%"}, {"measurement": "Mnestic activity (Ma), administration 15 min. before trial", "setting": "[3]", "result": 23, "unit": "%"}, {"measurement": "Mnestic activity (Ma), administration immediately after trial", "setting": "[3]", "result": 14.0, "unit": "%"}, {"measurement": "Habituation index (motor activity last 5 min / first 5 min of recording)", "setting": "[4]; 0.05 mg/kg, 15 min before registration", "result": 30, "unit": "%"}, {"measurement": "Habituation index", "setting": "[4]; 0.1 mg/kg", "result": 10, "unit": "%"}, {"measurement": "Habituation index", "setting": "[4]; 0.5 mg/kg", "result": 15, "unit": "%"}, {"measurement": "Habituation index", "setting": "[4]; 2.5 mg/kg", "result": 25, "unit": "%"}, {"measurement": "Habituation index", "setting": "[4]; 5.0 mg/kg", "result": 27, "unit": "%"}, {"measurement": "Initial locomotor activity", "setting": "[4]; dose range 0.05-5.0 mg/kg", "result": "without changing of initial locomotor activity"}, {"measurement": "Passive avoidance test (latency, sec)", "setting": "[5]", "result": 141.2, "unit": "s"}, {"measurement": "%% of avoiding rats", "setting": "[6]; 4th day", "result": 42.8, "unit": "%"}, {"measurement": "Active avoidance test - coeff. of preserving", "setting": "[6]; 4th day", "result": 28.1, "unit": "%"}, {"measurement": "%% of avoiding rats", "setting": "[6]; 9th day", "result": 57.1, "unit": "%"}, {"measurement": "Active avoidance test - coeff. of preserving", "setting": "[6]; 9th day", "result": 38.1, "unit": "%"}, {"measurement": "Coefficient of habituation (ratio - 5th min/1st min)", "setting": "[7]; 0.1 mg/kg/day i.p. chronically", "result": 0.03}, {"measurement": "Locomotor activity (counts)", "setting": "[7]; 1st min. of registration, 0.1 mg/kg/day i.p. chronically", "result": 422, "unit": "counts"}, {"measurement": "Locomotor activity (counts)", "setting": "[7]; 5th min. of registration", "result": 13, "unit": "counts"}, {"measurement": "Increase of the weight (in %% to the initial one)", "setting": "[8]; 0.1 mg/kg/day i.p. during 3 weeks", "result": 12, "unit": "%"}, {"measurement": "Amount of the consumed chow", "setting": "[8]; between 19th and 21st days, 0.1 mg/kg/day i.p.", "result": 39.5, "unit": "g/day/rat"}, {"measurement": "Seizure Reactions in Points (M ± m)", "setting": "[9]; 24 h after phenazepam withdrawal, pentylenetetrazol 35 mg/kg i.p., 0.5 mg/kg i.p.", "result": "0.25 ± 0.12", "unit": "points"}, {"measurement": "Seizure Reactions in Points (M ± m)", "setting": "[9]; 48 h after phenazepam withdrawal", "result": "0.87 ± 0.1", "unit": "points"}, {"measurement": "Seizure Reactions in Points (M ± m)", "setting": "[9]; 72 h after phenazepam withdrawal", "result": "0.5 ± 0.24", "unit": "points"}]}]}
